# In patent US7834179B2, “Spiroindolinone derivatives” (Hoffmann-La Roche Inc., priority 2007, dated 2010):
# Target: interaction between p53 and MDM2 proteins (Homo sapiens, UniProt Q00987)
# Experiment: HTRF assay of inhibition of p53-MDM2 interaction (GST-MDM2 / biotinylated p53 peptide)
# Assay type: binding
# Settings: recombinant GST-tagged MDM2 and biotinylated p53 peptide, 37° C. for 1 h
# Procedure: The ability of the compounds to inhibit the interaction between p53 and MDM2 proteins was measured by an HTRF (homogeneous time-resolved fluorescence) assay in which recombinant GST-tagged MDM2 binds to a peptide that resembles the MDM2-interacting region of p53 (Lane et al.). Binding of GST-MDM2 protein and p53-peptide (biotinylated on its N-terminal end) is registered by the FRET (fluorescence resonance energy transfer) between Europium (Eu)-labeled anti-GST antibody and streptavidin-conjugated Allophycocyanin (APC).
# Test is performed in black flat-bottom 384-well plates (Costar) in a total volume of 40 uL containing: 90 nM biotinylate peptide, 160 ng/ml GST-MDM2, 20 nM streptavidin-APC (PerkinElmerWallac), […] Eu-labeled anti-GST-antibody (PerkinElmerWallac), 0.2% bovine serum albumin (BSA), 1 mM dithiothreitol (DTT) and 20 mM Tris-borate seine (TBS) buffer as follows: Add 10 uL of GST-MDM2 (640 ng/ml working solution) in reaction buffer to each well. Add 10 uL diluted compounds (1:5 dilution in reaction buffer) to each well, mix by shaking. Add 20 uL biotinylated p53 peptide (180 nM working solution) in reaction buffer to
# each well and mix on shaker. Incubate at 37° C. for 1 h. Add 20 uL streptavidin-APC and Eu-anti-GST antibody mixture (6 nM Eu-anti-GST and 60 nM streptavidin-APC working solutions), in TBS buffer with 0.2% BSA, shake at room temperature for 30 minutes and read using a TRF-capable plate reader at 665 and 615 nm (Victor 5, Perkin ElmerWallac). If not specified, the reagents were purchased from Sigma, Chemical Co.
# Chain of interaction between p53 and MDM2 proteins (Q00987 whole entry): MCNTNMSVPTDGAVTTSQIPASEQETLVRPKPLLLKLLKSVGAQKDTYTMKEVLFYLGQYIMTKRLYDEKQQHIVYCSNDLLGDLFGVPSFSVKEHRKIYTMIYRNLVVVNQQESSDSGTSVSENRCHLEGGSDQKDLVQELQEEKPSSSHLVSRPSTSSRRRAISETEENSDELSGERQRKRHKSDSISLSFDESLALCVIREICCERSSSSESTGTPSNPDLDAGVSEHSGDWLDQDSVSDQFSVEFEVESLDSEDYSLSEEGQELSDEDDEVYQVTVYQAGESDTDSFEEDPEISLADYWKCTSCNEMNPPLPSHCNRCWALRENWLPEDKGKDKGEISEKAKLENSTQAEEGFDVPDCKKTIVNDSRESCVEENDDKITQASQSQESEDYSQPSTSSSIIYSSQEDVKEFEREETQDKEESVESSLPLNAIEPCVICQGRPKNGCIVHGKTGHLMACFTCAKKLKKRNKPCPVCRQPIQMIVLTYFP
row,IC50 [nM],SMILES
1,191,"Cc1ccc(F)cc1[C@H]1N2CC(=O)N(C)N=C2C[C@@H](c2cccc(Cl)c2)[C@]12C(=O)Nc1cc(Cl)ccc12 (racemic) [Example 1i, (6′R, 3R, 8′S)-6-chloro-8′-(3-chlorophenyl)-6′-(5-fluoro-2-methylphenyl)-2′-methyl-6′,7′,8′,9′-tetrahydro spiro[3H-indole-3,7′-(2H-pyrido[2,1-c][1,2,4]triazine)]-2,3′(1H)-dione]"
2,100,"C=C(CC)[C@H]1N2CC(=O)N(CCCN(C)C)N=C2C[C@@H](c2cccc(Cl)c2)[C@]12C(=O)Nc1cc(Cl)ccc12 (racemic) [Example 5b, (6′R, 3R, 8′S)-6-chloro-8′-(3-chlorophenyl)-2′-(3-dimethylaminopropyl)-6′-(1-methylene-propyl)-6′,7′,8′,9′-tetrahydro spiro[3H-indole-3,7′-(2H-pyrido[2,1-c][1,2,4]triazine)]-2,3′(1H)-dione]"
3,272,"C=CCOc1ccc(I)cc1[C@H]1N2CC(=O)N(C)N=C2C[C@@H](c2cccc(Cl)c2)[C@]12C(=O)Nc1cc(Cl)ccc12 (racemic) [Example 18g, (6′R, 3R, 8′S)-6′-(2-allyloxy-5-iodo-phenyl)-6-chloro-8′-(3-chlorophenyl)-2′-methyl-6′,7′,8′,9′-tetrahydro spiro[3H-indole-3,7′-(2H-pyrido[2,1-c][1,2,4]triazine)]-2,3′(1H)-dione]"
4,293,"C=C(CC)[C@H]1N2CC(=O)N(CC(=O)NCCO)N=C2C[C@@H](c2cccc(Cl)c2)[C@]12C(=O)Nc1cc(Cl)ccc12 [Example 11c, (6′R, 3R, 8′S)-6-chloro-8′-(3-chlorophenyl)-2′-[(2-hydroxyethylamino)carbonyl-methyl]-6′-(1-methylene-propyl)-6′,7′,8′,9-tetrahydro spiro[3H-indole-3,7′-(2H-pyrido[2,1-c][1,2,4]triazine)]-2,3′(1H)-dione]"

row,SMILES,IC50 [nM]
1,"C=C(CC)[C@H]1N2CC(=O)N(CCOC(C)=O)N=C2C[C@@H](c2cccc(Cl)c2)[C@]12C(=O)Nc1cc(Cl)ccc12 (racemic) [Example 7b, (6′R, 3R, 8′S)-2′-(2-acetoxyethyl)-6-chloro-8′-(3-chlorophenyl)-6′-(1-methylene-propyl)-6′,7′,8′,9′-tetrahydro spiro[3H-indole-3,7′-(2H-pyrido[2,1-c][1,2,4]triazine)]-2,3′(1H)-dione]",890
